# Data taken from US12636370B2, “Combination therapy for treatment of cancer” (Institute For Cancer Research, priority 2019, dated 2026).
# Tests used:
# Type in all cases: cell-based
# [1] = test system: BET proteins (BRD2, BRD3, BRD4); assay: Western blot of BET protein levels, OVCAR8 parental cells
# OVCAR8 cells [2] = assay: Single-run proteome analysis and RNA-seq, OVCAR8 cells; details: 48 hours, single-run proteome analysis
# Protocol: Enrichment maps of pathways repressed by short-term BBD generated from single-run proteome profiles of OVCAR8 cells treated with BBDs (MZ1 or ARV825) for 48 hours were prepared (data not shown). Statistical differences in protein log 2 LFQ z-scores comparing BBDs or BBIs to control treated cells was determined by paired T-Test Benjamini-Hochberg adjusted p values at FDR of <0.05 using Perseus Software. […] Enrichment maps were generated in Cytoscape using the Enrichment Map app v2.2.1. […] Statistical differences in protein log 2 LFQ z-scores comparing BBDs or BBIs to control treated cells was determined.
# OVCAR8 MZ1-R cells [3] = assay: CellTiter-Glo cell viability, OVCAR8 MZ1-R cells; details: escalating doses, 5 days; for cell viability of MZ1-R cells compared with parental cells: OVCAR8 MZ1-R; for sensitivity of MZ1-R cells relative to JQ1-R cells or parental cells: OVCAR8, inhibitor screen
# OVCAR8 ARV-R cells [4] = assay: CellTiter-Glo cell viability, OVCAR8 ARV-R cells; details: escalating doses, 5 days
# OVCAR8 JQ1-R cells [5] = assay: CellTiter-Glo cell viability, OVCAR8 JQ1-R cells; details: escalating doses, 5 days
# [6] = test system: BET proteins (BRD2, BRD3, BRD4); assay: Western blot of BET proteins and BRD4 targets, OVCAR8 MZ1-R cells; details: Western blot
# [7] = test system: BET proteins (BRD2, BRD3, BRD4); assay: Western blot of BET proteins, OVCAR8 ARV-R cells
# BET proteins, FOSL1, MYC = assay: Western blot of BET proteins and BRD4 targets, JQ1-R cells
# OVCAR8 MZ1-R cells [8] = assay: Apoptosis by Western blot, OVCAR8 MZ1-R cells
# OVCAR8 JQ1-R cells [9] = assay: Apoptosis by cleaved PARP Western blot, OVCAR8 JQ1-R cells
# OVCAR8 ARV-R cells [10] = assay: Apoptosis by cleaved PARP Western blot, OVCAR8 ARV-R cells
# OVCAR8 cells [11] = assay: CellTiter-Glo cell viability, OVCAR8 parental cells; details: dose escalation, 5 days
# [12] = test system: translation markers, RNA pol II, MYC; assay: Western blot of translation, BRD4-targets and MYC signaling, OVCAR8 cells; details: 500 nM, 48 hours
# [13] = test system: INSR and downstream MTOR, AKT and MAPK signaling; assay: Kinase signaling in BBD-R cells (MIB-MS, phospho-blot); details: for phosphorylation of P70S6K (T359): BBD-R cells (MZ1-R, ARV-R), 1 μM, 4 hours
# Protocol: Reduced MIB-binding of kinases involved in cell cycle (WEE1, CHEK1, CDK2, CDK6 and PLK1), as well as kinases required for translation (EIF2AK1, EIF2AK2, and EIF2AK4) were also observed following GSK529A treatment. […] Enrichment maps of pathways repressed by INSR inhibition generated from MIB-MS profiles of OVCAR8 cells treated with GSK529A (1 μM) treatment for 48 hours. Statistical differences in protein log 2 LFQ z-scores comparing GSK529A to control treated MZ1-R cells was determined by paired T-Test Benjamini- Hochberg adjusted p values at FDR of <0.05 using Perseus Software. […] Enrichment maps were generated in Cytoscape using the Enrichment Map app v2.2.1. (data not shown).
# BRD2, BRD3 or BRD4 RNA = assay: qRT-PCR of BRD RNA levels, OVCAR8 MZ1-R cells; details: 1 μM, 48 hours
# [14] = test system: KURAMOCHI, COV362 and OVCAR5 MZ1-R cells; assay: CellTiter-Glo cell viability, KURAMOCHI, COV362 and OVCAR5 MZ1-R cells; details: COV362 and OVCAR5, escalating doses, 5 days
# [15] = test system: BET proteins (BRD2, BRD4); assay: Western blot of BET proteins, KURAMOCHI, COV362 and OVCAR5 MZ1-R cells
# OVCAR5 JQ1-R cells = assay: Growth curves, OVCAR5 JQ1-R cells
compound,measurement,setting,value
Cc1sc2c(c1C)C(c1ccc(Cl)cc1)=N[C@@H](CC(=O)Nc1ccc(OCCOCCOCCOCCNc3cccc4c3C(=O)N(C3CCC(=O)NC3=O)C4=O)cc1)c1nnc(C)n1-2 (stereo partly shown) [ARV825],BET protein levels,[1],degraded BET proteins in a concentration-dependent manner
same,global protein level changes,OVCAR8 cells [2],uniquely downregulated proteins involved in ribosome and translation signaling
same,cell viability of MZ1-R cells compared with parental cells,OVCAR8 MZ1-R cells [3],inhibited cell viability
same,cell viability of ARV-R cells compared with parental cells,OVCAR8 ARV-R cells [4],rightward shift
same,cell viability of JQ1-R cells,OVCAR8 JQ1-R cells [5],inhibited cell viability
same,BET protein levels,[6],reduced BET proteins
same,BET protein levels,[7],"insufficient to degrade BRD2, BRD3 or BRD4"
same,BET protein levels,"BET proteins, FOSL1, MYC",degraded BET proteins
same,"BRD4 target (FOSL1, MYC) protein levels","BET proteins, FOSL1, MYC",reduced MYC/FOSL1 protein levels
same,apoptosis,OVCAR8 MZ1-R cells [8],promoted apoptosis
same,apoptosis,OVCAR8 JQ1-R cells [9],induced apoptosis
Cc1ncsc1-c1ccc([C@H](C)NC(=O)[C@@H]2C[C@@H](O)CN2C(=O)[C@@H](NC(=O)COCCCOCCNC(=O)C[C@@H]2N=C(c3ccc(Cl)cc3)c3c(sc(C)c3C)-n3c(C)nnc32)C(C)(C)C)cc1 [ARV-771],cell viability of MZ1-R cells compared with parental cells,OVCAR8 MZ1-R cells [3],cross-resistant
same,cell viability of ARV-R cells compared with parental cells,OVCAR8 ARV-R cells [4],"failed to reduce BET proteins, block growth or induce apoptosis"
same,BET protein levels,[7],"failed to reduce BET proteins, block growth or induce apoptosis"
same,apoptosis,OVCAR8 ARV-R cells [10],"failed to reduce BET proteins, block growth or induce apoptosis"
O=C(O)c1ccc2c(c1)nc(Nc1cccc(Cl)c1)c1ccncc12 [Cx-4945],cell viability of MZ1-R cells compared with parental cells,OVCAR8 MZ1-R cells [3],more sensitive
same,cell viability of JQ1-R cells,OVCAR8 JQ1-R cells [5],more sensitive
CS(=O)(=O)N1CCN(Cc2cc3nc(-c4cccc5[nH]ncc45)nc(N4CCOCC4)c3s2)CC1 [GDC-0941],cell viability of MZ1-R cells compared with parental cells,OVCAR8 MZ1-R cells [3],more sensitive
same,cell viability of JQ1-R cells,OVCAR8 JQ1-R cells [5],more sensitive
Cc1sc2c(c1C)C(c1ccc(Cl)cc1)=N[C@@H](CC(=O)OC(C)(C)C)c1nnc(C)n1-2 [JQ1],GI50,OVCAR8 cells [11],0.133 µM
same,RNA pol II (S2) phosphorylation,[12],not observed with JQ1
same,cell viability of MZ1-R cells compared with parental cells,OVCAR8 MZ1-R cells [3],reduced cell viability to a greater extent than parental cells
same,cell viability of ARV-R cells compared with parental cells,OVCAR8 ARV-R cells [4],reduced cell viability to a greater extent than parental cells
same,cell viability of JQ1-R cells,OVCAR8 JQ1-R cells [5],unaffected by increasing doses of JQ1
same,"BRD4 target (FOSL1, MYC) protein levels","BET proteins, FOSL1, MYC",failed to reduce BRD4 target FOSL1
COc1ncccc1-c1cnn2ccc(N3CCN(C(=O)OC(C)C)CC3)nc12 [LP-935509],sensitivity of MZ1-R cells relative to JQ1-R cells or parental cells,OVCAR8 MZ1-R cells [3],more sensitive
same,cell viability of ARV-R cells compared with parental cells,OVCAR8 ARV-R cells [4],reduced cell viability more than in parental cells
CNc1ncc2cc(-c3cc(NC(=O)NCCC(C)(C)C)c(F)cc3C)c(C)nc2n1 [LY3009120],cell viability of JQ1-R cells,OVCAR8 JQ1-R cells [5],most profound impact on JQ1-R cell viability
NC1(c2ccc(-c3nc4ccn5c(=O)[nH]nc5c4cc3-c3ccccc3)cc2)CCC1 [MK-2206],sensitivity of MZ1-R cells relative to JQ1-R cells or parental cells,OVCAR8 MZ1-R cells [3],more sensitive
same,cell viability of ARV-R cells compared with parental cells,OVCAR8 ARV-R cells [4],reduced cell viability more than in parental cells
COC[C@@H](C)NC1CCC(Nc2cc(-c3cccc(NCC4(C#N)CCOCC4)n3)c(Cl)cn2)CC1 (stereo partly shown) [NVP-2],cell viability of MZ1-R cells compared with parental cells,OVCAR8 MZ1-R cells [3],more sensitive
same,cell viability of JQ1-R cells,OVCAR8 JQ1-R cells [5],more sensitive
CNC(=O)c1ccccc1Nc1cc(Nc2ccc(N3CCOCC3)cc2OC)ncc1C(F)(F)F [PND-1186],sensitivity of MZ1-R cells relative to JQ1-R cells or parental cells,OVCAR8 MZ1-R cells [3],more sensitive
CCC(=O)N1CCN(c2ccc(-n3c(=O)ccc4cnc5ccc(-c6cnc7ccccc7c6)cc5c43)cc2C(F)(F)F)CC1 [Torin-1],BET protein levels,[6],reduced BRD2 and BRD4 levels
same,BET protein levels,[7],reduced BRD2 and BRD4 levels
same,phosphorylation of P70S6K (T359),[13],reduced MTOR-mediated phosphorylation of P70S6K (T359)
CC(C)C[C@H](NC(=O)[C@H](Cc1ccccc1)NC(=O)c1cnccn1)B(O)O [bortezomib],phosphorylated RNA pol II (S2),"[13]; OVCAR8 MZ1-R cells, 48 hour RAD001 treatment, with or without bortezomib",could be reversed by bortezomib treatment
CCN(CCO)CCCC(C)Nc1ccnc2cc(Cl)ccc12 (stereo not shown) [hydroxychloroquine],cell viability of MZ1-R cells compared with parental cells,OVCAR8 MZ1-R cells [3],more sensitive
same,cell viability of JQ1-R cells,OVCAR8 JQ1-R cells [5],more sensitive
CS(=O)(=O)CCNCc1ccc(-c2ccc3ncnc(Nc4ccc(OCc5cccc(F)c5)c(Cl)c4)c3c2)o1 [lapatinib],cell viability of ARV-R cells compared with parental cells,OVCAR8 ARV-R cells [4],reduced cell viability more than in parental cells
same,BET protein levels,[6],reduced BRD2 and BRD4 levels
same,BET protein levels,[7],reduced BRD2 and BRD4 levels
same,phosphorylation of P70S6K (T359),[13],reduced MTOR-mediated phosphorylation of P70S6K (T359)
same,"BRD2, BRD3 or BRD4 RNA levels","BRD2, BRD3 or BRD4 RNA",unaffected
same,cell viability / growth of MZ1-R cells compared with parental cells,[14],significantly blocked cell growth to a greater extent than parental cells
same,BET protein levels,[15],reduced BRD2 and BRD4 proteins
same,growth inhibition,OVCAR5 JQ1-R cells,minimal growth inhibition
O=C(c1cc(Cc2n[nH]c(=O)c3ccccc23)ccc1F)N1CCN(C(=O)C2CC2)CC1 [olaparib],cell viability of MZ1-R cells compared with parental cells,OVCAR8 MZ1-R cells [3],more sensitive
same,cell viability of JQ1-R cells,OVCAR8 JQ1-R cells [5],more sensitive
